Test results from patent US12351590B2, “Pyrrolopyrimidine compound and use thereof” (GUANGZHOU JOYO PHARMATECH CO., LTD., priority 2019, dated 2025).

What was measured:
TYK2(h) = TYK2(h) (Homo sapiens (Human), UniProt P29597); assay: In vitro activity assay of TYK2 kinase (radiometric [γ-33P]-ATP); type: biochemical; conditions: recombinant human TYK2
Method: (§1) Recombinant human JAK1, JAK2, JAK3 and TYK2 […], and main instruments and reagents were provided by Eurofins, UK
(§2) JAK2, JAK3 and TYK2 dilutions: 20 mM 3-(N-morpholino)propanesulfonic acid (MOPS), 1 mM EDTA, 0.01% Brij-35.5% glycerol, 0.1% β-mercaptoethanol, 1 mg/mL BSA; JAK1 dilution: 20 mM TRIS, 0.2 mM EDTA, 0.1% β-mercaptoethanol, 0.01% Brij-35.5% glycerol. All compounds were prepared in 100% DMSO and brought to 50 fold the final assay concentration. The test compounds were serially 3-fold diluted to 9 concentrations from 10 μM to 0.001 μM with DMSO content in the assay reaction being 2%. Working stock solutions of the compounds were added to the assay wells as the first component of the reaction, and then the remaining components were added according to the assay protocol detailed below.
(§3) TYK2(h) was incubated with 8 mM MOPS pH 7.0, 0.2 mM EDTA, 250 μM GGMEDIYFEFMGGKKK, 10 mM magnesium acetate and [γ-^33P]-ATP (activity and concentration were determined as required). The reaction was started by adding the Mg/ATP mixture and terminated by adding 0.5% phosphoric acid after 40 min of incubation at room temperature. 10 μL of the reaction mixture was then added dropwise on a P30 filter pad and washed three times with 0.425% phosphoric acid and once with methanol within 4 minutes, dried and analyzed using a scintillation counter.

JAK3(h) = JAK3(h) (Homo sapiens (Human), UniProt P52333); assay: In vitro activity assay of JAK3 kinase (radiometric [γ-33P]-ATP); type: biochemical; conditions: recombinant human JAK3
Method: as §1, §2
as §3, with “JAK3(h)” for “TYK2(h)”, “500” for “250”, “GGEEEEYFELVKKKK,” for “GGMEDIYFEFMGGKKK,”

JAK1(h) = JAK1(h) (Homo sapiens (Human), UniProt P23458); assay: In vitro activity assay of JAK1 kinase (radiometric [γ-33P]-ATP); type: biochemical; conditions: recombinant human JAK1
Method: as §1, §2
as §3, with “JAK1(h)” for “TYK2(h)”, “20” for “8”, “Tris/HCl” for “MOPS”, “7.5,” for “7.0,”, “500” for “250”, “MGEEPLYWSFPAKKK,” for “GGMEDIYFEFMGGKKK,”

JAK2(h) = JAK2(h) (Homo sapiens (Human), UniProt O60674); assay: In vitro activity assay of JAK2 kinase (radiometric [γ-33P]-ATP); type: biochemical; conditions: recombinant human JAK2
Method: as §1, §2
as §3, with “JAK2(h)” for “TYK2(h)”, “100” for “250”, “[…],” for “GGMEDIYFEFMGGKKK,”

Caco-2 cells = test system: Caco-2 cells
Method: The transport buffer solution was HBSS (Hanks' balanced salt solution) and 10 mM HEPES [N-(2-hydroxyethyl)piperazine-N′-(2-ethanesulfonic acid)], pH 7.40±0.05; Caco-2 cells were purchased from ATCC.
Caco-2 cells were seeded at 1×10^5 cells/cm^2 in polyethylene terephthalate (PET) 96-well BD insert plates, and the medium was refreshed every 4-5 days until day 21-28 to form a confluent monolayer. Test compounds were tested in a two-way format at 2 μM in duplicate. Digoxin was added at 10 μM in the two-way format, and nadolol and metoprolol were added at 2 μM in the two-way format. Final DMSO concentration was adjusted to less than 1%. The plates were incubated in a CO2 incubator at 37±1° C. for 2 h and at 5% CO2 and saturated humidity without shaking. All samples were mixed with acetonitrile containing an internal standard, centrifuged at 4000 rpm for 10 min. 100 microliters of supernatant was diluted with 100 microliters of distilled water for LC/MS/MS analysis. By LC/MS/MS analysis, the concentrations of the test compounds and the reference compound in the initial test compound solution, the test compound solution and the test article solution using the peak area ratio of the analyte to the internal standard. After the transport test, the integrity of the Caco-2 cell monolayer was determined by fluorescein yellow exclusion reaction, and the apparent permeability coefficient and efflux ratio were calculated.

[1] = test system: rat adjuvant-induced arthritis model; assay: Adjuvant-induced arthritis (AIA) in rats, in-vivo pharmacodynamic study; design: species or system Lewis rats; conditions: for Inhibition on area under the clinical score curve, AUC (%): oral, 2 times daily, female Lewis rats; for Mean clinical arthritis score: 10 mg/kg group
Method: The compounds disclosed herein were tested for their efficacy on arthritis using a rat adjuvant-induced arthritis model. Female, 160- and 180-gram Lewis rats were anesthetized with isoflurane and injected subcutaneously with 0.1 mL of Mycobacterium tuberculosis suspension in the left hind paw. The animals were grouped and administered with the compounds 13 days after modeling. The test compound 1-13 was dissolved in a mixed vehicle of [5% DMSO, 95% (12% SBE-β-CD), 0.5% MC]. The female Lewis rats were orally administered 2 times daily (8 animals in each group).

[2] = Pharmacokinetic (PK) study in mice; type: in vivo, mice (C57BL/6); conditions: male C57BL/6 mice
Method: Clear solutions obtained by dissolving the test compounds were administered to male mice (C57BL/6) or rats (SD) by tail vein injection and oral gavage (overnight fasting, 7-8 weeks old). After the administration of the test compounds, plasma was separated from blood collected from the mandibular vein and centrifugation at 0.117, 0.333, 1, 2, 4, 7 and 24 h for the intravenous injection group (1 mg/kg), and at 0.25, 0.5, 1, 2, 4, 8 and 24 h for the oral gavage group (3 mg/kg). The plasma concentration was measured by LC-MS/MS method, and the relevant pharmacokinetic parameters were calculated by WinNonlin™ Version 6.3 pharmacokinetic software using non-compartmental model linear logarithmic trapezoid method.

[3] = i.v. 1 mg/kg and oral gavage 3 mg/kg groups, route not given

Sequence of JAK3(h) (P52333 whole entry): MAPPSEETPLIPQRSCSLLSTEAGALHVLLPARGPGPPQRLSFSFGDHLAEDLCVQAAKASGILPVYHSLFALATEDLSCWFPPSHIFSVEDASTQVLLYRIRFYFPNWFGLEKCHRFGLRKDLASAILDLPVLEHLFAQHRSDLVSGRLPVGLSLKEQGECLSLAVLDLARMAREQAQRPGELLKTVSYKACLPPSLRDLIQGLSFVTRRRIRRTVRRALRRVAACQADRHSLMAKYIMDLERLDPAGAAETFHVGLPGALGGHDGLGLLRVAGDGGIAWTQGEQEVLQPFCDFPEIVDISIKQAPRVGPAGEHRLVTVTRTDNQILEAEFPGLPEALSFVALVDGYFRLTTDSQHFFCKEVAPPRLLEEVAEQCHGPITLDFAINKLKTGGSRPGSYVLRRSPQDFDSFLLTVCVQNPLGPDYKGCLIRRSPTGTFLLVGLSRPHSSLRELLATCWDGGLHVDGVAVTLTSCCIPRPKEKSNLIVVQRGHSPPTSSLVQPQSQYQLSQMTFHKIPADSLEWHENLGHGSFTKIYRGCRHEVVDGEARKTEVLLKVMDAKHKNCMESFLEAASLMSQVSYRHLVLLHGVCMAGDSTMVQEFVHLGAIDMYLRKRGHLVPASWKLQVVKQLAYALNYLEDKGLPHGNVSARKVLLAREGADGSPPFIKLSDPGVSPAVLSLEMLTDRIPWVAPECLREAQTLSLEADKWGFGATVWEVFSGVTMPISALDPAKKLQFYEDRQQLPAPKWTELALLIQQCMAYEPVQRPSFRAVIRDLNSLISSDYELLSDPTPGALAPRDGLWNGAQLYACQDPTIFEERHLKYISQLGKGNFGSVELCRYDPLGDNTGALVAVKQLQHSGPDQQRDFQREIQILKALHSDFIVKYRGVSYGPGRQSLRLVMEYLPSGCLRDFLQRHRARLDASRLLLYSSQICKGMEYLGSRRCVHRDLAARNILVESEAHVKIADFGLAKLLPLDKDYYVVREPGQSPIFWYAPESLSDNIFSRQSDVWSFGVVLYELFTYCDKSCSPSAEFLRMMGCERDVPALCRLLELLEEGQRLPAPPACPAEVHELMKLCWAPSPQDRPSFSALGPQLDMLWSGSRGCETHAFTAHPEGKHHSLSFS
Sequence of JAK1(h) (P23458 whole entry): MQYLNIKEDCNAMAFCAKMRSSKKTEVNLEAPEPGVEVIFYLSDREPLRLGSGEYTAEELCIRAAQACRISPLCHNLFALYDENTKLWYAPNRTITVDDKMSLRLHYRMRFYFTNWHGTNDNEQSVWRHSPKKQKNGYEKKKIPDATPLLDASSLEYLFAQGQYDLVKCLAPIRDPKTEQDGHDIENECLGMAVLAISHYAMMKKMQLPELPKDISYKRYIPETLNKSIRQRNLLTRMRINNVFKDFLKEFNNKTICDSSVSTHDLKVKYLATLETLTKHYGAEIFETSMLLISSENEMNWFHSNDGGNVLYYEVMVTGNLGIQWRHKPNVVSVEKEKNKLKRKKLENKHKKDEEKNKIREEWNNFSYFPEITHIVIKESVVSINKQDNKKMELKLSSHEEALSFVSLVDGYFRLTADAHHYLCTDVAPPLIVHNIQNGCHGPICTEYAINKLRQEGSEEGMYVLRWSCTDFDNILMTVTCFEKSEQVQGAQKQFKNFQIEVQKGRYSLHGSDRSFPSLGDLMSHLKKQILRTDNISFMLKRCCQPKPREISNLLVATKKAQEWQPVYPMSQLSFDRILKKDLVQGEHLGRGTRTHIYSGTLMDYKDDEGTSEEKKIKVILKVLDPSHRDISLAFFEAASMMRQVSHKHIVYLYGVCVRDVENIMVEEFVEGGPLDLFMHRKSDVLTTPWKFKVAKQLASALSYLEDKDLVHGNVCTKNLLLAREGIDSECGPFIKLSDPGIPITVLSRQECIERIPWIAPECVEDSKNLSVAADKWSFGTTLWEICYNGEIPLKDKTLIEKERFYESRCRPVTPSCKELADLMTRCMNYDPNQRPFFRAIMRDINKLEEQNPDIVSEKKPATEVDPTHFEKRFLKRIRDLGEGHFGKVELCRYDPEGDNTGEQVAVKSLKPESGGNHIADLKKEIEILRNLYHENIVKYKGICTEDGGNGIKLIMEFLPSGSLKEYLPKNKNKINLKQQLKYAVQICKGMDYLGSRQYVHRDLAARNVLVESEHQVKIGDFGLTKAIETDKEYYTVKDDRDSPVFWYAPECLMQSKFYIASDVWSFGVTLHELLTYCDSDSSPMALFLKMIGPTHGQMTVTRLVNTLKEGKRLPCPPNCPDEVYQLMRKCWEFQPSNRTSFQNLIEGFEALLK
Sequence of JAK2(h) (O60674 whole entry): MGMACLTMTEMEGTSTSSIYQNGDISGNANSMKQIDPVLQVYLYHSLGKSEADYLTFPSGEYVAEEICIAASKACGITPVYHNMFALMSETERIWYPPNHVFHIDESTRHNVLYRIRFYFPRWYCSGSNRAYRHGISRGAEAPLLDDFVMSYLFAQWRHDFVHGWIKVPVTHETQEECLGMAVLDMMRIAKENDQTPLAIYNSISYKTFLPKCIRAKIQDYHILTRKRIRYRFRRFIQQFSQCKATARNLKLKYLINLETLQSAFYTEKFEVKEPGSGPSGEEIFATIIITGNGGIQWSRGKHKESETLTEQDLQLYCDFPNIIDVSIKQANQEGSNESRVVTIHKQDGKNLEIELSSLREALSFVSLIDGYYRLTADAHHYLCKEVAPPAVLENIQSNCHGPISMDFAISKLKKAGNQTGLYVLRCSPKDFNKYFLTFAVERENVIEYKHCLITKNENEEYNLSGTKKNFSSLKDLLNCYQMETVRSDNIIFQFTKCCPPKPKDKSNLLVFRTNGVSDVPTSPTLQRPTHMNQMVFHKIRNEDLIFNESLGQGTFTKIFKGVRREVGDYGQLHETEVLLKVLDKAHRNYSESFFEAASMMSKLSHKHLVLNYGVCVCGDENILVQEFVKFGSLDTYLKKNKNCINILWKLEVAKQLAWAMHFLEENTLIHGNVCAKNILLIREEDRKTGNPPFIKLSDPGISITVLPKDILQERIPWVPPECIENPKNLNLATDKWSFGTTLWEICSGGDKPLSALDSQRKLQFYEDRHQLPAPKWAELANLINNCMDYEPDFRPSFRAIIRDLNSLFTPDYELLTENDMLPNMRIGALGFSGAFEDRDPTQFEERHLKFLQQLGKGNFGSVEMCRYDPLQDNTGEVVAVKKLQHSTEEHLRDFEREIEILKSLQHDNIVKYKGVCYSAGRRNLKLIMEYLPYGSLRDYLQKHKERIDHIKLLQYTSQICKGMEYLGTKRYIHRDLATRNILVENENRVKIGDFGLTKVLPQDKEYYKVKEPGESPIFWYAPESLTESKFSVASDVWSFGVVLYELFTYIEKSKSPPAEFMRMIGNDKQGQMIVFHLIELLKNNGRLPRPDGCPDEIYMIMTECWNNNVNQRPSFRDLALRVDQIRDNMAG
Sequence of TYK2(h) (P29597 whole entry): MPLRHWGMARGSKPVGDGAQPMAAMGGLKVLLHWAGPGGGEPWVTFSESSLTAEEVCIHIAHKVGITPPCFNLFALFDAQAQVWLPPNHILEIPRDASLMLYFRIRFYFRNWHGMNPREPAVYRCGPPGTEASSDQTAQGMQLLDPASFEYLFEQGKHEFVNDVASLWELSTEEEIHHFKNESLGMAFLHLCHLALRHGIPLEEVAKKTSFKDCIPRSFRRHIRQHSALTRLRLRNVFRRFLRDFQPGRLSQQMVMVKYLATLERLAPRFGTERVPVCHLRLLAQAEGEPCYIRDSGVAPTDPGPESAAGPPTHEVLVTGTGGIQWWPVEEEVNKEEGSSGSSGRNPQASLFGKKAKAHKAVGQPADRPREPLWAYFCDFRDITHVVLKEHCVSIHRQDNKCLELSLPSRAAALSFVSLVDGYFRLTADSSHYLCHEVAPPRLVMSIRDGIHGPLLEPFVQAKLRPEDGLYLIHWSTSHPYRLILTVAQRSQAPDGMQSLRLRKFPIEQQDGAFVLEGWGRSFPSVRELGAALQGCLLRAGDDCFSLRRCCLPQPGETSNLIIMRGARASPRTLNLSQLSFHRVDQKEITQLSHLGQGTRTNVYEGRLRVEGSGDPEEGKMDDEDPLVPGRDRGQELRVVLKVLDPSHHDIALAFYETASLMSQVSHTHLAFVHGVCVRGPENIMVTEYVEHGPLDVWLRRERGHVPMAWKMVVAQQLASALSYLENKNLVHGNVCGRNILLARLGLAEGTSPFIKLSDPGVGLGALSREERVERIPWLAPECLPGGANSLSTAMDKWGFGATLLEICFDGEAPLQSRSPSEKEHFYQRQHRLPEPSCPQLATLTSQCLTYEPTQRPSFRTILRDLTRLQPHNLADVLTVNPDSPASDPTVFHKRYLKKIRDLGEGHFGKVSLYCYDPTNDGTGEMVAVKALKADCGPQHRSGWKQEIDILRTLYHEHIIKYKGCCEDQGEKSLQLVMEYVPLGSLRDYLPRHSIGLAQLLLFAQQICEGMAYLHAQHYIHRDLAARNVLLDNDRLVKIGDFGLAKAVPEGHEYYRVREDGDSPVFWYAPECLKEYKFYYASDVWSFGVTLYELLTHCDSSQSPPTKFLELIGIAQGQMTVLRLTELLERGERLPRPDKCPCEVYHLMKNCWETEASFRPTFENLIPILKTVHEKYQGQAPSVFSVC

SMILES	IC50 (TYK2(h)) [nM]	IC50 (JAK3(h)) [nM]	IC50 (JAK1(h)) [nM]	IC50 (JAK2(h)) [nM]	Efflux ratio (Caco-2 cells; Caco-2)	Mean apparent permeability coefficient Mean Papp (10^−6 cm/s) A to B (Caco-2 cells; Caco-2, pH 7.4)	Mean apparent permeability coefficient Mean Papp (10^−6 cm/s) B to A (Caco-2 cells; Caco-2, pH 7.4)	Effect on the weight loss trend of animals caused by disease attack ([1]; 3 mg/kg and 10 mg/kg, vs solvent control group, significant difference since day 20)	Therapeutic effect (inhibition rate versus vehicle control) ([1]; 3 mg/kg and 10 mg/kg, P<0.0001 versus vehicle control)	Inhibition on area under the clinical score curve, AUC (%) ([1]; 3 mg/kg)	Mean clinical arthritis score ([1]; day 13 (start of dosing)) [points]	Mean clinical arthritis score ([1]; day 27 (study endpoint)) [points]	Inhibition on area under the clinical score curve, AUC (%) ([1]; 10 mg/kg)	Increase in clinical arthritis score ([1]; dose-dependent, 3 and 10 mg/kg)	Increase in paw volume ([1]; dose-dependent, 3 and 10 mg/kg)	AUC0-inf [2, 3] [µM·h]	Cmax [2, 3] [µM]	T1/2 [2, 3] [h]	Bioavailability (%) ([2]; oral gavage 3 mg/kg vs i.v. 1 mg/kg)
CN(c1ncnc2[nH]ccc12)[C@@H]1CCc2cc(C#N)nn2C1 [Compound 1-13]	15	118	1	8	1.09	28.58 10^−6 cm/s	31.18 10^−6 cm/s	significant relieving effect	significant therapeutic effect	49.6	6	1.4	60.5	inhibited	inhibited	12.765	6	1.89	88.4
CC(C)(C)NCC(O)COc1cccc2c1CC(O)C(O)C2 (centres unmarked) [Nadolol, reference compound]						0.16 10^−6 cm/s													
